Data taken from US9963464B2, “Macrocyclic compounds” (Bayer Pharma Aktiengesellschaft, priority 2014, dated 2018).

Experiments:
[1] = molecular target: T1, human PTEFb (CDK9/Cyclin T1) (Homo sapiens, UniProt P50750); assay: Surface plasmon resonance PTEFb; type: binding; conditions: SPR; for koff: 25° C., below 5E-5 s^-1 not resolvable, read-out: Dissociation rate constant koff; for Target resident time: 1/koff
T1 construct: purchased ProQinase, Freiburg, Germany
Description: 8. Surface Plasmon Resonance PTEFb
The term “surface plasmon resonance”, as used herein, refers to an optical phenomenon that allows for the analysis of the reversible associations of biological molecules in real time within a biosensor matrix, for example using the Biacore® system (GE Healthcare Biosciences, Uppsala, Sweden). Biacore® uses the optical properties of surface plasmon resonance (SPR) to detect alterations in the refractive index of a buffer, which changes as molecules in solution interact with the target immobilized on the surface. In brief, proteins are covalently bound to the dextran matrix at a known concentration and a ligand for the protein is injected through the dextran matrix. Near infrared light, directed onto the opposite side of the sensor chip surface is reflected and also induces an evanescent wave in the gold film, which in turn, causes an intensity dip in the reflected light at a particular angle known as the resonance angle. If the refractive index of the sensor chip surface is altered (e.g. by compound binding to the bound protein) a shift occurs in the resonance angle. This angle shift can be measured.
The term “KD”, as used herein, is intended to refer to the equilibrium dissociation constant of a particular compound/target protein complex.
The term “koff”, as used herein, is intended to refer to the off-rate, i.e. the dissociation rate constant of a particular compound/target protein complex.
The term “target residence time”, as used herein, is intended to refer to the inverse of the rate of dissociation rate constant (1/koff) of a particular compound/target protein complex.
The ability of the compounds according to the invention to bind human PTEFb may be determined using surface plasmon resonance (SPR). KD values and koff values may be measured using a Biacore® T200 instrument (GE Healthcare, Uppsala, Sweden).
For SPR measurements, recombinant human PTEFb (CDK9/Cyclin T1 recombinant human active protein kinase purchased from ProQinase, Freiburg, Germany) is immobilized using standard amine coupling (Johnsson B et al, Anal Biochem. 1991 Nov. 1; 198(2):268-77). Briefly, carboxymethylated dextran biosensor chips (CM7, GE Healthcare) are activated with N-ethyl-N′-(3-dimethylaminopropyl)-carbodiimide hydrochloride (EDC) and N-hydroxysuccinimide (NHS) according to the supplier's instructions. Human PTEFb is diluted in 1×HBS-EP+(GE Healthcare) into 30 μg/ml and injected on the activated chip surface. Subsequently, a 1:1 solution of 1 M ethanolamine-HCl (GE Healthcare) and 1×HBS-EP is injected to block unreacted groups, resulting in approximately 4000 response units (RU) of immobilized protein. A reference surface is generated by treatment with NHS-EDC and ethanolamine-HCl. Compounds are dissolved in 100% dimethylsulfoxide (DMSO, Sigma-Aldrich, Germany) to a concentration of 10 mM and subsequently diluted in running buffer (1×HBS-EP+pH 7.4 [generated from HBS-EP+Buffer 10× (GE Healthcare): 0.1 M HEPES, 1.5 M NaCl, 30 mM EDTA and 0.5% v/v Surfactant P20], 1% v/v DMSO). For kinetic measurements, four-fold serial dilutions of compound (0.39 nM to 100 nM) are injected over immobilized protein. Binding kinetics is measured at 25° C. with a flow rate of 50 μl/min in running buffer. Compound concentrations are injected for 60 s followed by a dissociation time of 1800 s. The resulting sensorgrams are double-referenced against the reference surface as well as against blank injections.
The double-referenced sensorgrams are fit to a simple reversible Langmuir 1:1 reaction mechanism as implemented in the Biacore® T200 evaluation software 2.0 (GE Healthcare). In cases were full compound dissociation has not occurred at the end of the dissociation phase, the Rmax parameter (response at saturation) is fit as local variable. In all other cases, Rmax is fit as global variable.

[2] = test system: rat hepatocytes; assay: In vitro metabolic stability in rat hepatocytes; type: in vitro ADME; conditions: 1 μM
Procedure: 6. Investigation of In Vitro Metabolic Stability in Rat Hepatocytes
Hepatocytes from Han Wistar rats were isolated via a 2-step perfusion method. After perfusion, the liver was carefully removed from the rat: the liver capsule was opened and the hepatocytes were gently shaken out into a Petri dish with ice-cold Williams medium E (purchased from Sigma Aldrich Life Science, St Louis, Mo.). The resulting cell suspension was filtered through sterile gaze in 50 ml falcon tubes and centrifuged at 50×g for 3 min at room temperature. The cell pellet was resuspended in 30 ml WME and centrifuged through a Percoll® gradient for 2 times at 100×g. The hepatocytes were washed again with Williams' medium E (WME) and resuspended in medium containing 5% Fetal calf serum (FCS, purchased from Invitrogen, Auckland, NZ). Cell viability was determined by trypan blue exclusion.
For the metabolic stability assay liver cells were distributed in WME containing 5% FCS to glass vials at a density of 1.0×10^6 vital cells/ml. The test compound was added to a final concentration of 1 μM. During incubation, the hepatocyte suspensions were continuously shaken and aliquots were taken at 2, 8, 16, 30, 45 and 90 min, to which equal volumes of cold acetonitrile were immediately added. Samples were frozen at −20° C. over night, after subsequently centrifuged for 15 minutes at 3000 rpm and the supernatant was analyzed with an Agilent 1200 HPLC-system with LCMS/MS detection.
The half-life of a test compound was determined from the concentration-time plot. From the half-life the intrinsic clearances were calculated.

[3] = Caco-2 permeation assay; type: in vitro ADME; conditions: human, pH 7.2, Caco-2 monolayer, 2 μM test compound; for Papp A→B at 2 h, 2 μM: read-out: Papp A-B (Mari); for Papp B→A at 2 h, 2 μM: read-out: Papp B-A (Mari); for efflux ratio at 2 h, 2 μM: read-out: Efflux ratio (Papp B-A/Papp A-B)
Procedure: 5. Caco-2 Permeation Assay:
Caco-2 cells (purchased from DSMZ Braunschweig, Germany) were seeded at a density of 4.5×10^4 cells per well on 24 well insert plates, 0.4 μm pore size, and grown for 15 days in DMEM medium supplemented with 10% fetal bovine serum, 1% GlutaMAX (100×, GIBCO), 100 U/mL penicillin, 100 μg/mL streptomycin (GIBCO) and 1% non essential amino acids (100×). Cells were maintained at 37° C. in a humidified 5% CO2 atmosphere. Medium was changed every 2-3 day. Before running the permeation assay, the culture medium was replaced by a FCS-free hepes-carbonate transport buffer (pH 7.2). For assessment of monolayer integrity the transepithelial electrical resistance (TEER) was measured. Test compounds were predissolved in DMSO and added either to the apical or basolateral compartment in final concentration of 2 μM in transport buffer. Before and after 2 h incubation at 37° C. samples were taken from both compartments. Analysis of compound content was done after precipitation with methanol by LC/MS/MS analysis. Permeability (Papp) was calculated in the apical to basolateral (A→B) and basolateral to apical (B→A) directions. The apparent permeability was calculated using following equation: Papp=(Vr/Po)(1/S)(P2/t) Where Vr is the volume of medium in the receiver chamber, Po is the measured peak area or height of the test drug in the donor chamber at t=o, S the surface area of the monolayer, P2 is the measured peak area of the test drug in the acceptor chamber after 2 h of incubation, and t is the incubation time. The efflux ratio basolateral (B) to apical (A) was calculated by dividing the Papp B-A by the Papp A-B. In addition the compound recovery was calculated.

T1 sequence (P50750 whole entry): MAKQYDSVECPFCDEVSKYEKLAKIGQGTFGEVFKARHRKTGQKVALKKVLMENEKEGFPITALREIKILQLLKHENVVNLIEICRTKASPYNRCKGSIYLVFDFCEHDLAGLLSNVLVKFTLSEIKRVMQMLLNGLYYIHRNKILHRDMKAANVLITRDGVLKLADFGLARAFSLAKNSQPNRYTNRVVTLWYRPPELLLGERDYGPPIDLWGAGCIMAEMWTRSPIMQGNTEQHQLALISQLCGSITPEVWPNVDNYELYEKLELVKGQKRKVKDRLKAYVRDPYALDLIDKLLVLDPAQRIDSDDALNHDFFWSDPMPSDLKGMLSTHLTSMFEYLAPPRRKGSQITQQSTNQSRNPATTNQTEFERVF
T1 sequence (O60563 whole entry partner): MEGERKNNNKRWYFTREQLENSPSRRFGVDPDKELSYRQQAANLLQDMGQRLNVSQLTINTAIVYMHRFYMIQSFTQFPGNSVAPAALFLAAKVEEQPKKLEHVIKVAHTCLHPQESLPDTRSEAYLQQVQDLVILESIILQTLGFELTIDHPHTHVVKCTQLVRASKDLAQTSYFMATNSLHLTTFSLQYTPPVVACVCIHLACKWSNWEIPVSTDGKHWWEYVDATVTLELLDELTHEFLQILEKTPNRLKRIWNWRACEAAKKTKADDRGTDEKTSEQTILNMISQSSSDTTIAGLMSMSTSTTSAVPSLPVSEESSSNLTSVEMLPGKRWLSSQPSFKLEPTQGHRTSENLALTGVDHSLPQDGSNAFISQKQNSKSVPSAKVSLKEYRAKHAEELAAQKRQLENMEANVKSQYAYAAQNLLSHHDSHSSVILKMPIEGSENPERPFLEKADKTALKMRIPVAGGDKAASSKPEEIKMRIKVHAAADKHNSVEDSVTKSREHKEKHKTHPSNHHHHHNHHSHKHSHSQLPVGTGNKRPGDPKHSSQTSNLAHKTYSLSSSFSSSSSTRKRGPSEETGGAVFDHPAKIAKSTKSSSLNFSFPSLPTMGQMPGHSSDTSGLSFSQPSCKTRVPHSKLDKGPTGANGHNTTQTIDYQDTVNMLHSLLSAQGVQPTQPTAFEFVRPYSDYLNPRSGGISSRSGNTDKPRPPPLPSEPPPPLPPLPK

Row | SMILES | koff [1] | Target resident time [1] | maximal calculated oral bioavailability (Fmax) based on stability data in rat hepatocytes [2] | Papp A→B at 2 h, 2 μM [3] | Papp B→A at 2 h, 2 μM [3] | efflux ratio at 2 h, 2 μM [3]
1 | CS(=N)(=O)Cc1cc2cc(c1)OCCCOc1cc(F)ccc1-c1nc(ncc1F)N2 (racemic) [Example 15, (rac)-15,19-difluoro-8-[(S-methylsulfonimidoyl)methyl]-3,4-dihydro-2H,11H-12,16-(azeno)-10,6-(metheno)-1,5,11,13-benzodioxadiazacyclooctadecine] | < 5e-05 s⁻¹ | >333 min | 76% |  |  | 
2 | CS(=N)(=O)Cc1cc2cc(c1)OCCCCOc1cc(F)ccc1-c1nc(ncc1F)N2 (racemic) [Example 1, (rac)-16,20-Difluoro-9-[(S-methylsulfonimidoyl)methyl]-2,3,4,5-tetrahydro-12H-13,17-(azeno)-11,7-(metheno)-1,6,12,14-benzodioxadiazacyclononadecine] | < 5e-05 s⁻¹ | >333 min | 69% | 13.9 ×10⁻⁶ cm/s | 19.7 ×10⁻⁶ cm/s | 1.4
3 | CS(=O)(=O)Cc1cc2nc(c1)OCCCOc1cc(F)ccc1-c1cc(ncc1F)N2 [Example 8, 15,19-difluoro-8-[(methylsulfonyl)methyl]-3,4-dihydro-2H,11H-10,6-(azeno)-12,16-(metheno)-1,5,11,13-benzodioxadiazacyclooctadecine] | < 5e-05 s⁻¹ | >333 min |  | 6.7 ×10⁻⁶ cm/s | 5.5 ×10⁻⁶ cm/s | 0.8
4 | CS(=N)(=O)Cc1cc2nc(c1)OCCCOc1cc(F)ccc1-c1cc(ncc1F)N2 (racemic) [Example 5, (rac)-15,19-Difluoro-8-[(S-methylsulfonimidoyl)methyl]-3,4-dihydro-2H,11H-10,6-(azeno)-12,16-(metheno)-1,5,11,13-benzodioxadiazacyclooctadecine] | 9.3e-05 s⁻¹ | 179.2 min | 62% | 4.7 ×10⁻⁶ cm/s | 4.3 ×10⁻⁶ cm/s | 0.91

Second part, the compound after the results:

Row | koff [1] | Target resident time [1] | maximal calculated oral bioavailability (Fmax) based on stability data in rat hepatocytes [2] | Papp A→B at 2 h, 2 μM [3] | Papp B→A at 2 h, 2 μM [3] | efflux ratio at 2 h, 2 μM [3] | SMILES
5 |  |  |  | 8.2 ×10⁻⁶ cm/s | 12.6 ×10⁻⁶ cm/s | 1.5 | CS(=O)(=O)N=S(C)(=O)Cc1cc2nc(c1)OCCCOc1cc(F)ccc1-c1cc(ncc1F)N2 (racemic) [Example 22, (rac)-N-[{[15,19-difluoro-3,4-dihydro-2H,11H-10,6-(azeno)-12,16-(metheno)-1,5,11,13-benzodioxadiazacyclooctadecin-8-yl]methyl}(methyl)oxido-λ^6-sulfanylidene]methanesulfonamide]
6 |  |  |  | 1.2 ×10⁻⁶ cm/s | 7.6 ×10⁻⁶ cm/s | 6.5 | NCCS(=O)(=O)Cc1cc2nc(c1)OCCCOc1cc(F)ccc1-c1cc(ncc1F)N2 [Example 26, 2-({[15,19-difluoro-3,4-dihydro-2H,11H-10,6-(azeno)-12,16-(metheno)-1,5,11,13-benzodioxadiazacyclooctadecin-8-yl]methyl}sulfonyl)ethanamine]
